PMC11605156, “Triterpenoids from Ganoderma lucidum inhibit cytochrome P450 enzymes interfering with the metabolic process of specific clinical drugs” (Frontiers in Pharmacology, 2024)

Assays:
in vivo = settings: rat
Protocol: SD rats (Male, weighing 220 g ± 20 g) were divided into a dichloromethane administration group and a control group with 6 rats in each group. Both groups were given probe substrate drugs by gavage. […] 200 μL blood samples were taken from the rat jugular vein at 0.167, 0.333, 0.5, 0.75, 1, 2, 3, 4, 6, 8, 10, and 12 h after the administration of the probe substrate. After precipitation of proteins by with 600 μL acetonitrile via centrifugation […] at 4°C at 3,500 rpm for 10 min. The supernatant was detected using liquid chromatography-tandem mass spectrometry (LC-MS/MS). The mass spectrometry information of the probe drug is shown in Supplementary Table S3. Animal experiments in this study were approved by the Animal Ethics Committee of the Dalian Medical University.

CYP1A2 = biological target: T1, CYP1A2 (Homo sapiens, UniProt P05177); assay: CYP1A2 inhibition, probe/drug metabolism in human liver microsomes (LC-MS/MS); settings: for Residual activity (%) CYP1A2: HLM 0.5 mg/mL
T1 sequence (P05177 1-516): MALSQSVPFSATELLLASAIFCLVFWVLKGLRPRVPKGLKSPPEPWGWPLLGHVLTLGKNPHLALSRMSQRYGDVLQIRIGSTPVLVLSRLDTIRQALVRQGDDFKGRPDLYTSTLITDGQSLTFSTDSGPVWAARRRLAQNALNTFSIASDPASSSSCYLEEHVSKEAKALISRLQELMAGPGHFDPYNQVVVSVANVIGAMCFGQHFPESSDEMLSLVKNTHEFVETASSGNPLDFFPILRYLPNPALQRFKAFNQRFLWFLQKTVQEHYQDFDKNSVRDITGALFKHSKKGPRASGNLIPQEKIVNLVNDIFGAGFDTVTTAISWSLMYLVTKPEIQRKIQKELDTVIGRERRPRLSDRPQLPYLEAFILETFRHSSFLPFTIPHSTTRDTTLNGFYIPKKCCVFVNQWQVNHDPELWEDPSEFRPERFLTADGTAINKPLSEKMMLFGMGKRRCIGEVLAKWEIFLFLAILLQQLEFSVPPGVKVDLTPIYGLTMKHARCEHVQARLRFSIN
Protocol: (§1) The total volume of the in vitro metabolic incubation system is 200 μL. The probe substrate concentration in the system is shown in Supplementary Table S1. […] The reaction sample was preheated in a constant temperature mixer at 37°C. Then NADP^+ was added to the system to initiate the reaction. The reaction time is 30 min, and 100 μL acetonitrile will be added on time to quickly terminate the reaction, followed by centrifugation at 4°C and 20,000 g for 20 min. The supernatant was analyzed using liquid chromatography tandem mass spectrometry (LC-MS/MS), and the activity of CYP enzymes was evaluated by the generation of probe metabolites. The mass spectrometry information of probe substrates is shown in Supplementary Table S3.
(§2) The isolated triterpenoids (1–66) were used to establish a compounds library. The inhibitory effects of 66 triterpenoids from G. lucidum on seven subtypes of CYP enzymes (CYP1A2, 2A6, 2D6, 2B6, 2C9, 2C19, 3A4) were evaluated followed the above-mentioned experimental procedures.
(§3) For 16 clinical drugs metabolized by CYP enzymes, potential DDI studies were conducted on triterpenoids (6, 25) of G. lucidum, and IC50 values were measured.
(§4) Clinical drugs: Phenacetin, melatonin, clozapine and riluzole are metabolized by CYP1A2. Bupropion, artemisinin, efavirenz and sertraline are metabolized by CYP2B6. Diclofenac, valsartan, glimepiride and glibenclamide are metabolized by CYP2C9. Midazolam, imatinib, simvastatin and diltiazem are metabolized by CYP3A4.
(§5) Table S1. The information of probes for CYPs activity assay
(§6) Table S2. Information of clinical drugs

CYP2D6 = CYP2D6 (Homo sapiens, UniProt P10635); assay: CYP2D6 inhibition, dextromethorphan probe in human liver microsomes; settings: for Residual activity (%) CYP2D6: HLM 0.5 mg/mL, dextromethorphan 5 μM, 30 min
Protocol: as §1, §2, §5

CYP3A4 = CYP3A4 (Homo sapiens, UniProt P08684); assay: CYP3A4 inhibition, probe/drug metabolism in human liver microsomes; settings: human, human liver microsomes, pH 7.4, probe midazolam 5 μM, Residual activity (%) CYP3A4, HLM 0.5 mg/mL, midazolam 5 μM, 30 min
Protocol: as §1, §2, §3, §4, §5, §6

CYP2A6 = biological target: T2, CYP2A6 (Homo sapiens, UniProt P11509); assay: CYP2A6 inhibition, coumarin probe in human liver microsomes; settings: for activity at 30 min: human, human liver microsomes, pH 7.4, probe coumarin 2 μM, Residual activity (%) CYP2A6, HLM 0.5 mg/mL
T2 sequence (P11509 1-494): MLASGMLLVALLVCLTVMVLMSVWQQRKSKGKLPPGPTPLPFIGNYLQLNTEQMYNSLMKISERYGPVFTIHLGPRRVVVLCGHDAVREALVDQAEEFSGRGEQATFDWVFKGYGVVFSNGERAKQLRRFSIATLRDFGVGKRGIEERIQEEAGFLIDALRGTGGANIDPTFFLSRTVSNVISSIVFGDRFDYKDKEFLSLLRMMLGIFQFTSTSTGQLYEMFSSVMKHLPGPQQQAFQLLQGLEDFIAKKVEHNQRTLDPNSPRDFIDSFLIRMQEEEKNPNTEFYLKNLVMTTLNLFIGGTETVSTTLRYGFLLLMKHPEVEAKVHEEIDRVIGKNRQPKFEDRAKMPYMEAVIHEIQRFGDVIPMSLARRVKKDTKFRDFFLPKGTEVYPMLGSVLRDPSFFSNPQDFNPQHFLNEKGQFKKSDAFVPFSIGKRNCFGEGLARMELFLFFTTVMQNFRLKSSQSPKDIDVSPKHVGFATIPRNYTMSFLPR
Protocol: as §1, §2, §5

CYP2B6 = biological target: T3, CYP2B6 (Homo sapiens, UniProt P20813); assay: CYP2B6 inhibition, probe/drug metabolism in human liver microsomes; settings: bupropion 75 μM, 30 min; for activity at 30 min: human, human liver microsomes, pH 7.4, probe bupropion 75 μM, Residual activity (%) CYP2B6, HLM 0.5 mg/mL
T3 sequence (P20813 1-491): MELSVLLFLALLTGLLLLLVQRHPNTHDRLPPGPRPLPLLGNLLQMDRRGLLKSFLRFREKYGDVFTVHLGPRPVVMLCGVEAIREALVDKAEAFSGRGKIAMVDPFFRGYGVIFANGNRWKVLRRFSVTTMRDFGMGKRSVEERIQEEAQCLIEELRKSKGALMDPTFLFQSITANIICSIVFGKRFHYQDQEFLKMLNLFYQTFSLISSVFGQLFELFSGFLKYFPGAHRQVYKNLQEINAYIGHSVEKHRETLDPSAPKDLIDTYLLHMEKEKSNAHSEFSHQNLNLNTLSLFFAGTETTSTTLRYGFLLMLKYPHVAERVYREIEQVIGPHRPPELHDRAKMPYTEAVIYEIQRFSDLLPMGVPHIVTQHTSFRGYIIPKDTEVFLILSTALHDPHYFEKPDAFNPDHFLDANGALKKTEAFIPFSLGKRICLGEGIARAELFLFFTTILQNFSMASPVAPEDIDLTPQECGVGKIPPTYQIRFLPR
Protocol: as §1, §2, §3, §4, §5, §6

CYP2C9 = CYP2C9 (Homo sapiens, UniProt P11712); assay: CYP2C9 inhibition, probe/drug metabolism in human liver microsomes; settings: diclofenac 4 μM, 30 min; for activity at 30 min: human, human liver microsomes, pH 7.4, probe diclofenac 4 μM, Residual activity (%) CYP2C9, HLM 0.5 mg/mL
Protocol: as §1, §2, §3, §4, §5, §6

CYP2C19 = CYP2C19 (Homo sapiens, UniProt P33261); assay: CYP2C19 inhibition, S-mephenytoin probe in human liver microsomes; settings: S-mephenytoin 50 μM, 30 min; for activity at 30 min: human, human liver microsomes, pH 7.4, probe S-mephenytoin 50 μM, Residual activity (%) CYP2C19, HLM 0.5 mg/mL
Protocol: as §1, §2, §5

[1] = gavage, drug alone (control group), n = 6

CYP2C19, sequence (P33261 whole entry): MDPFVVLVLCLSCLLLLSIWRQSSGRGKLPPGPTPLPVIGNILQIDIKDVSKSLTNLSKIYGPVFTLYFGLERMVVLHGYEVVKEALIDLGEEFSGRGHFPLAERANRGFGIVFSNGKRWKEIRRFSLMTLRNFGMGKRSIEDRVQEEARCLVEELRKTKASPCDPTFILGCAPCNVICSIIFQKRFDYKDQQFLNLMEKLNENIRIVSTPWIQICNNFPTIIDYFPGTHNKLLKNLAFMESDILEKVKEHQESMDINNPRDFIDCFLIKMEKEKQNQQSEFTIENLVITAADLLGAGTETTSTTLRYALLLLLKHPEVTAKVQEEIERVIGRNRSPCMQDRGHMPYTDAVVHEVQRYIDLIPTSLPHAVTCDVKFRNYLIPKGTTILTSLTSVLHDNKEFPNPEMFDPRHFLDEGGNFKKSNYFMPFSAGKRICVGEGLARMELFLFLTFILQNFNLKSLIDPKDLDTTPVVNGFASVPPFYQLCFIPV
CYP2C9, sequence (P11712 whole entry): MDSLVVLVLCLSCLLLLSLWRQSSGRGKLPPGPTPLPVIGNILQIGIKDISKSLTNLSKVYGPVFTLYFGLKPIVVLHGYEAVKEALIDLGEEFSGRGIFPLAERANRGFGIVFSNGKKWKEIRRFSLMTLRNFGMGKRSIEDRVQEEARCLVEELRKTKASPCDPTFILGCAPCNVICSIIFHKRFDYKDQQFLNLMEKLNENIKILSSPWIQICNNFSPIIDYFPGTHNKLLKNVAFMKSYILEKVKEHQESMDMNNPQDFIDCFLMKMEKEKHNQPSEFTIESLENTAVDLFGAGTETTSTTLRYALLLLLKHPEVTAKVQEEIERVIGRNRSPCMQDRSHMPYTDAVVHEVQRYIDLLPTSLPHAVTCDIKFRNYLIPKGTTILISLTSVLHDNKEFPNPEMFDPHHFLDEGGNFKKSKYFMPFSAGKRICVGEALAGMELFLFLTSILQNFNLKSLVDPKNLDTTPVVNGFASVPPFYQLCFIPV
CYP2D6, sequence (P10635 whole entry): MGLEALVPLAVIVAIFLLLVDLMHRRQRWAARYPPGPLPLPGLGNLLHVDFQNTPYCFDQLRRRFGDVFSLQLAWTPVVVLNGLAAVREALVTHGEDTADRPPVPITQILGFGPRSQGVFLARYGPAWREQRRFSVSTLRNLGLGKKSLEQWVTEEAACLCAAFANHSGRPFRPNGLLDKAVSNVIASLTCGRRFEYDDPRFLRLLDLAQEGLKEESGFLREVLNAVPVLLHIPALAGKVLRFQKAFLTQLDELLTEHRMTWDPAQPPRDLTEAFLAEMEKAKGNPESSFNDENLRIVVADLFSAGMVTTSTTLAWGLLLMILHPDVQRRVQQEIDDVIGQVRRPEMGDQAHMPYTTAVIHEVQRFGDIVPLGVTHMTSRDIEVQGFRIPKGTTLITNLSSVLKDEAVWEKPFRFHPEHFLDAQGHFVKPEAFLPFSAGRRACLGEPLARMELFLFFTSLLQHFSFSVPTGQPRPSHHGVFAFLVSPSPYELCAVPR
CYP3A4, sequence (P08684 whole entry): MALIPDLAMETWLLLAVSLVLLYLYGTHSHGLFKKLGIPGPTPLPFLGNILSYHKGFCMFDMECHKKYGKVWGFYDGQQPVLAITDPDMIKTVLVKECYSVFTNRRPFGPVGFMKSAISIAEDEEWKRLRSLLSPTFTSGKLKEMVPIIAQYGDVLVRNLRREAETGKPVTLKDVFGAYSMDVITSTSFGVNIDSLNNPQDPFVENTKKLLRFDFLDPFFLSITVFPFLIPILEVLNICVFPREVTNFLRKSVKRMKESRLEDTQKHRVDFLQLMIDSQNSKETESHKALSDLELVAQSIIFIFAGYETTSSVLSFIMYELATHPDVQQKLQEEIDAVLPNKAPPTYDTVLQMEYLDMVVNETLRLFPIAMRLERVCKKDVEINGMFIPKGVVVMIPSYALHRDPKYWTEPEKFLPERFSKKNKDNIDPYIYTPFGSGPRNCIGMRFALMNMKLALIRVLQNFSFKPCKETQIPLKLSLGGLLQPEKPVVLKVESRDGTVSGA

Structure (SMILES)	AUM (in vivo; male, SD, in vivo)	Cl_F_ (in vivo; male, SD, in vivo)	AUC(0-inf) (in vivo; male, SD, in vivo, po) [ng·h/mL]	AUC(0-t) (in vivo; male, SD, in vivo, po) [ng·h/mL]	Cmax (in vivo; male, SD, in vivo, po) [ng/mL]	Tmax (in vivo; male, SD, in vivo, po) [min]	Vz_F (in vivo; male, SD, in vivo, po)	other results
CC(NC(C)(C)C)C(=O)c1cccc(Cl)c1 (stereo not shown) [Bup, bupropion]	15,378.075 ± 3,089.500 h*ng/mL	3,954.386 ± 375.228 mL/h/kg	5090	4950	1890 ± 154	25 ± 7.74	10,405.594 ± 1,602.189 mL/kg	–
CC(=CC(=O)CC(C)C(=O)O)C1CC(=O)C2(C)C3=C(C(=O)CC12C)C1(C)CCC(=O)C(C)(CO)C1CC3O (stereo not shown) [Compound 1]	–	–	–	–	–	–	–	IC50 (CYP1A2; IC50 against CYP 1A2, substrate phenacetin 40 μM, HLM): 10.1 ± 0.23 µM; activity at 30 min (CYP1A2; human, human liver microsomes, pH 7.4, probe phenacetin 40 μM, Residual activity (%) CYP1A2, HLM 0.5 mg/mL, phenacetin 40 μM, 30 min): 29.1 ± 1.9%; activity at 30 min (CYP2D6; human, human liver microsomes, pH 7.4, probe dextromethorphan 5 μM, Residual activity (%) CYP2D6, HLM 0.5 mg/mL): 82.4 ± 1.5%; activity at 30 min (CYP3A4): 84.3 ± 7.26%; activity at 30 min (CYP2A6): 79.5 ± 3.07%; activity at 30 min (CYP2B6): 86.9 ± 5.76%; activity at 30 min (CYP2C9): 91.82 ± 0.87%; activity at 30 min (CYP2C19): 65 ± 6%
O=C(O)Cc1ccccc1Nc1c(Cl)cccc1Cl [Dic, diclofenac]	7,332.465 ± 1,560.101 h*ng/mL	4,276.363 ± 388.068 mL/h/kg	2350	2270	912 ± 68.1	17.5 ± 6.12	12,244.920 ± 1707.693 mL/kg	–
CC(CC(=O)CC(C)C1CC(=O)C2(C)C3=C(C(=O)CC12C)C1(C)CCC(O)C(C)(C)C1CC3=O)C(=O)O (stereo not shown) [Compound 54]	–	–	–	–	–	–	–	Residual activity (%) CYP1A2 (CYP1A2; phenacetin 40 μM, 30 min): 47.09±3.09%; IC50 at 30 min (CYP1A2; human, human liver microsomes, pH 7.4, probe phenacetin 40 μM, IC50 against CYP 1A2, substrate phenacetin 40 μM, HLM): 24.7 ± 3.38 µM; Residual activity (%) CYP2D6 (CYP2D6): 108.69±3.90%; activity at 30 min (CYP2A6): 82.6 ± 2.79%; activity at 30 min (CYP2B6): 84.1 ± 1.32%; activity at 30 min (CYP2C9): 88.45 ± 0.51%; activity at 30 min (CYP2C19): 88.3 ± 3.63%
Cc1ncc2n1-c1ccc(Cl)cc1C(c1ccccc1F)=NC2 [MDZ, midazolam]	–	–	2340	2300	1630	40 ± 7.74	–	AUM (in vivo; [1]): 4,197.381 ± 670.735 h*ng/mL; Cl_F_ (in vivo; [1]): 4,313.217 ± 497.661 mL/h/kg; Vz_F (in vivo; [1]): 8,995.776 ± 2,395.823 mL/kg
CC(CC(=O)CC(C)C1CC(=O)C2(C)C3=C(C(=O)CC12C)C1(C)CCC(O)C(C)(C)C1CC3=O)C(=O)O (stereo not shown) [Compound 55]	–	–	–	–	–	–	–	Residual activity (%) CYP1A2 (CYP1A2; phenacetin 40 μM, 30 min): 71.10±3.67%; Residual activity (%) CYP2D6 (CYP2D6): 86.79±5.16%; Residual activity (%) CYP2A6 (CYP2A6; HLM 0.5 mg/mL, coumarin 2 μM, 30 min): 74.81±0.70%; Residual activity (%) CYP2B6 (CYP2B6; HLM 0.5 mg/mL): 77.81±6.09%; Residual activity (%) CYP2C9 (CYP2C9; HLM 0.5 mg/mL): 96.25±6.96%; Residual activity (%) CYP2C19 (CYP2C19; HLM 0.5 mg/mL): 104.32±8.04%
CCOc1ccc(NC(C)=O)cc1 [PHE, Phenacetin]	692.744 ± 85.4782 ng·h/mL	14,264.696 ± 912.942 mL/h/kg	352 ± 22.6	342 ± 22.6	364 ± 38.1	37.5 ± 8.22	31,514.554 ± 6,298.860 mL/kg	–
